We go through 3 sequences from patent US8258260B2, “Tumor-associated peptides binding promiscuously to human leukocyte antigen (HLA) class II molecules” (Immatics Biotechnologies GmbH, priority 2005, dated 2012).

This experiment concerns CD4-positive T-cells. The experiment can be described thus: In vitro T-cell priming with peptide-pulsed autologous DCs, intracellular IFNγ staining of CD4-positive T-cells. It is filed as cell-based, human. The settings on record: for CD4+ T-cell IFNγ response to peptide: donors 1, 2 and 3, positive = more than two-fold over negative controls. The method, then:
Maturation of DCs: DCs were prepared using blood from healthy donors. Briefly, PBMCs were isolated using standard gradient centrifugation (Lymphocyte Separation Medium, PAA Laboratories GmbH, Pasching, Austria) and plated at a density of 7×10^6 cells/ml in X-Vivo 15 medium. After 2 hours at 37° C., non-adherent cells were removed and adherent monocytes cultured for 6 days in X-Vivo medium with 100 ng/ml GM-CSF and 40 ng/ml IL-4 (AL-ImmunoTools, Friesoythe, Germany). On day 7, immature DCs were activated with 10 ng/ml TNF-α (R&D Systems, Wiesbaden, Germany) and 20 μg/ml poly(IC) (Sigma Aldrich, Steinheim, Germany) for 3 days.
Generation of antigen-specific CD4-positive T-cells: 10^6 PBMCs per well were stimulated with 2×10^5 peptide pulsed (5 μg/ml) autologous DCs. Cells were incubated in 96-well plates (7 wells per donor and per peptide) with T-cell medium: supplemented RPMI 1640 in the presence of 10 ng/ml IL-12 (Promocell, Heidelberg, Germany). After 3 to 4 days of co-incubation at 37° C., fresh medium with 80 U/ml IL-2 (Proleukin, Chiron Corporation, Emeryville, Calif., USA) and 5 ng/ml IL-7 (Promocell) was added. Restimulations were done with autologous PBMCs plus peptide every 6 to 8 days.
Intracellular IFNγ staining: After 3 and 4 rounds of stimulation, PBMCs were thawed, washed twice in X-Vivo 15 medium, resuspended at 10^7 cells/ml in T-cell medium and cultured overnight. On the next day, PBMCs, pulsed with 5 μg/ml peptide, were incubated with effector cells in a ratio of 1:1 for 6 h. Golgi-Stop (Becton Dickinson, Heidelberg, Germany) was added for the final 4 h of incubation.
Cells were analyzed using a Cytofix/Cytoperm Plus kit (Becton Dickinson) and CD4-FITC-(Immunotools), IFNγ-PE- and CD8-PerCP clone SK1-antibodies (Becton Dickinson). For negative controls, cells of seven wells were pooled and incubated either with irrelevant peptide or without peptide, respectively. Stimulation with PMA/Ionomycin was used for positive control. Cells were analyzed on a three-color FACSCalibur (Becton Dickinson).
To generate antigen-specific CD4-positive T-cells and to test the peptides for promiscuous binding, PBMCs of 4 healthy donors with different HLA-DR alleles (FIG. 2), one of them carrying DRB1*1101, were stimulated using peptide-pulsed autologous DCs. […] As a read-out system for the generation of antigen-specific CD4-positive T-cells, IFNγ levels were assessed by flow cytometry. T-cells were analyzed after the third and fourth weekly stimulation by intracellular IFNγ staining plus CD4-FITC and CD8-PerCP staining to determine the percentage of IFNγ-producing cells in specific T-cell subpopulations. […]

Turning to “HSKIIIIKKGHAK (listed as Homo sapiens) [SEQ ID NO: 48]”, the “maximal frequency of IFNγ producing CD4+ T-cells” value is recorded as 0.05% (donor 2) and 0.07% (donor 3).

Take “NPPSMVAAGSVVAAV (listed as Homo sapiens) [SEQ ID NO: 49]”: the “CD4+ T-cell IFNγ response to peptide” value is “showed IFNγ responses”.

Regarding SQDDIKGIQKLYGKRS [SEQ ID NO: 1], the “CD4+ T-cell IFNγ response to peptide” value is on record as “showed CD4^+ T-cells reactive”.
